The values below come from patent US10745382B2 (BRISTOL-MYERS SQUIBB COMPANY, priority 2015, dated 2020).

T1 sequence (Q9NZQ7 with tags, fused parts or gaps): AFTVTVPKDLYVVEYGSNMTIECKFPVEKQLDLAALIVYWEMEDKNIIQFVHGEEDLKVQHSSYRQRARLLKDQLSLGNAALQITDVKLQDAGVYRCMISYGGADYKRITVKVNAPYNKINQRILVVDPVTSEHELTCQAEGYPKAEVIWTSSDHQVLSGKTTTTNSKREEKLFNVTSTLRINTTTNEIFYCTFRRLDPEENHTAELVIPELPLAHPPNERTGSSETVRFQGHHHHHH

One assay has as its target T1, PD-1/PD-L1 (Homo sapiens, UniProt Q9NZQ7).
T1 construct: made in house; host or cells: HEK293T
Briefly: PD-1/PD-L1 Homogenous Time-Resolved Fluorescence (HTRF) binding assay. The following applies: PD-L1-His 10 nM, PD-1-Ig 20 nM; numeric IC50; read-out: Range or IC50. An outline of the steps: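 Binding was measured by HTRF in dPBS with 0.1% BSA and 0.05% Tween-20. Detection used europium cryptate anti-Ig (1 nM final) and APC anti-His (20 nM final) added over the binding reaction.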
For orientation: TR-FRET usually uses a lanthanide donor and a delayed reading to cut background.
In general, IC50 refers to the concentration that inhibits the measured activity by half. Regarding `Cc1c(COc2cc(OCc3cncc(C#N)c3)c(CN3CCCC[C@H]3C(=O)O)cc2Cl)cccc1-c1cccc(OCCCN2CCN(c3ccccn3)CC2)c1C` [Example 2216, (2S)-1-(5-chloro-2-((5-cyanopyridin-3-yl)methoxy)-4-((2,2′-dimethyl-3′-(3-(4-(pyridin-2-yl)piperazin-1-yl)propoxy)biphenyl-3-yl)methoxy)benzyl)piperidine-2-carboxylic Acid], the IC50 turned out to be 30 nM.

As for `Cc1c(COc2cc(OCc3cncc(C#N)c3)c(CN3CCCC[C@H]3C(=O)O)cc2Cl)cccc1-c1cccc(OCCCNCCc2ncn(C)c2Cl)c1C` [Example 2231, (2S)-1-(5-chloro-4-((3′-(3-(2-(5-chloro-1-methyl-1H-imidazol-4-yl)ethylamino)propoxy)-2,2′-dimethylbiphenyl-3-yl)methoxy)-2-((5-cyanopyridin-3-yl)methoxy)benzyl)piperidine-2-carboxylic Acid], the half-inhibitory concentration (IC50) came out at 12 nM.

Staying with this assay, now noted: PD-L1-His 10 nM, PD-1-Ig 20 nM; value given as range class; read-out: Range or IC50.
`Cc1c(COc2cc(OCc3cncc(C#N)c3)c(CN3CCCC[C@H]3C(=O)O)cc2Cl)cccc1-c1cccc(OCCCN2CCCCC2)c1C` [Example 2213, (2S)-1-(5-chloro-2-((5-cyanopyridin-3-yl)methoxy)-4-((2,2′-dimethyl-3′-(3-(piperidin-1-yl)propoxy)biphenyl-3-yl)methoxy)benzyl)piperidine-2-carboxylic Acid]: the IC50 lay within 0.21 to 10 nM. In the case of `Cc1c(COc2cc(OCc3cncc(C#N)c3)c(CN3CCCC[C@H]3C(=O)O)cc2Cl)cccc1-c1cccc(OCCCN2CCC(CO)CC2)c1C` [Example 2214, (2S)-1-(5-chloro-2-((5-cyanopyridin-3-yl)methoxy)-4-((3′-(3-(4-(hydroxymethyl)piperidin-1-yl)propoxy)-2,2′-dimethylbiphenyl-3-yl)methoxy)benzyl)piperidine-2-carboxylic Acid], the concentration for half-maximal inhibition (IC50) is 0.21 to 10 nM.

`CC(=O)NC1CCN(CCCOc2cccc(-c3cccc(COc4cc(OCc5cncc(C#N)c5)c(CN5CCCC[C@H]5C(=O)O)cc4Cl)c3C)c2C)C1` (stereo partly drawn) [Example 2215, (2S)-1-(4-((3′-(3-(3-acetamidopyrrolidin-1-yl)propoxy)-2,2′-dimethylbiphenyl-3-yl)methoxy)-5-chloro-2-((5-cyanopyridin-3-yl)methoxy)benzyl)piperidine-2-carboxylic Acid]: the IC50 is 0.21 to 10 nM.

As to `Cc1c(COc2cc(OCc3cncc(C#N)c3)c(CN3CCCC[C@H]3C(=O)O)cc2Cl)cccc1-c1cccc(OCCCN2CCN(CC(=O)NC(C)C)CC2)c1C` [Example 2217, (2S)-1-(5-chloro-2-((5-cyanopyridin-3-yl)methoxy)-4-((3′-(3-(4-(2-(isopropylamino)-2-oxoethyl)piperazin-1-yl)propoxy)-2,2′-dimethylbiphenyl-3-yl)methoxy)benzyl)piperidine-2-carboxylic Acid], the 50% inhibitory concentration (IC50) was in the range of 0.21 to 10 nM. On to `Cc1c(COc2cc(OCc3cncc(C#N)c3)c(CN3CCCC[C@H]3C(=O)O)cc2Cl)cccc1-c1cccc(OCCCN(C)CCc2ccccc2)c1C` [Example 2218, (2S)-1-(5-chloro-2-((5-cyanopyridin-3-yl)methoxy)-4-((2,2′-dimethyl-3′-(3-(methyl(phenethyl)amino)propoxy)biphenyl-3-yl)methoxy)benzyl)piperidine-2-carboxylic Acid], for which the half-maximal inhibitory concentration (IC50) lay in the range of 0.21 to 10 nM. Turning to `COc1ccccc1N1CCN(CCCOc2cccc(-c3cccc(COc4cc(OCc5cncc(C#N)c5)c(CN5CCCC[C@H]5C(=O)O)cc4Cl)c3C)c2C)CC1` [Example 2219, (2S)-1-(5-chloro-2-((5-cyanopyridin-3-yl)methoxy)-4-((3′-(3-(4-(2-methoxyphenyl)piperazin-1-yl)propoxy)-2,2′-dimethylbiphenyl-3-yl)methoxy)benzyl)piperidine-2-carboxylic Acid], the IC50 lay within 0.21 to 10 nM. Take `Cc1c(COc2cc(OCc3cncc(C#N)c3)c(CN3CCCC[C@H]3C(=O)O)cc2Cl)cccc1-c1cccc(OCCCNC[C@H](O)c2ccccc2)c1C` [Example 2220, (2S)-1-(5-chloro-2-((5-cyanopyridin-3-yl)methoxy)-4-((3′-(3-((R)-2-hydroxy-2-phenylethylamino)propoxy)-2,2′-dimethylbiphenyl-3-yl)methoxy)benzyl)piperidine-2-carboxylic Acid]: the IC50 lay within 0.21 to 10 nM. Take `Cc1c(COc2cc(OCc3cncc(C#N)c3)c(CN3CCCC[C@H]3C(=O)O)cc2Cl)cccc1-c1cccc(OCCCNC[C@@H](O)c2ccccc2)c1C` [Example 2221, (2S)-1-(5-chloro-2-((5-cyanopyridin-3-yl)methoxy)-4-((3′-(3-((S)-2-hydroxy-2-phenylethylamino)propoxy)-2,2′-dimethylbiphenyl-3-yl)methoxy)benzyl)piperidine-2-carboxylic Acid]: the concentration for half-maximal inhibition (IC50) was in the range of 0.21 to 10 nM. Still for that read-out and setting: as for `Cc1c(COc2cc(OCc3cncc(C#N)c3)c(CN3CCCC[C@H]3C(=O)O)cc2Cl)cccc1-c1cccc(OCCCNCC(O)c2ccccn2)c1C` (stereo partly drawn) [Example 2222, (2S)-1-(5-chloro-2-((5-cyanopyridin-3-yl)methoxy)-4-((3′-(3-(2-hydroxy-2-(pyridin-2-yl)ethylamino)propoxy)-2,2′-dimethylbiphenyl-3-yl)methoxy)benzyl)piperidine-2-carboxylic Acid], the figure is 0.21 to 10 nM. With `Cc1c(COc2cc(OCc3cncc(C#N)c3)c(CN3CCCC[C@H]3C(=O)O)cc2Cl)cccc1-c1cccc(OCCCN2CCC[C@@H](O)C2)c1C` [Example 2223, (2S)-1-(5-chloro-2-((5-cyanopyridin-3-yl)methoxy)-4-((3′-(3-((R)-3-hydroxypiperidin-1-yl)propoxy)-2,2′-dimethylbiphenyl-3-yl)methoxy)benzyl)piperidine-2-carboxylic Acid], the IC50 lay within 0.21 to 10 nM. `Cc1c(COc2cc(OCc3cncc(C#N)c3)c(CN3CCCC[C@H]3C(=O)O)cc2Cl)cccc1-c1cccc(OCCCN2CCC[C@H](O)C2)c1C` [Example 2224, (2S)-1-(5-chloro-2-((5-cyanopyridin-3-yl)methoxy)-4-((3′-(3-((S)-3-hydroxypiperidin-1-yl)propoxy)-2,2′-dimethylbiphenyl-3-yl)methoxy)benzyl)piperidine-2-carboxylic Acid]: the IC50 fell in the range of 0.21 to 10 nM.

`Cc1c(COc2cc(OCc3cncc(C#N)c3)c(CN3CCCC[C@H]3C(=O)O)cc2Cl)cccc1-c1cccc(OCCCNCCc2ccccn2)c1C` [Example 2225, (2S)-1-(5-chloro-2-((5-cyanopyridin-3-yl)methoxy)-4-((2,2′-dimethyl-3′-(3-(2-(pyridin-2-yl)ethylamino)propoxy)biphenyl-3-yl)methoxy)benzyl)piperidine-2-carboxylic Acid]: the IC50 was in the range of 0.21 to 10 nM.

Consider `Cc1c(COc2cc(OCc3cncc(C#N)c3)c(CN3CCCC[C@H]3C(=O)O)cc2Cl)cccc1-c1cccc(OCCCN(C)Cc2cccnc2)c1C` [Example 2226, (2S)-1-(5-chloro-2-((5-cyanopyridin-3-yl)methoxy)-4-((2,2′-dimethyl-3′-(3-(methyl(pyridin-3-ylmethyl)amino)propoxy)biphenyl-3-yl)methoxy)benzyl)piperidine-2-carboxylic Acid], for which the IC50 fell in the range of 0.21 to 10 nM. As for `Cc1c(COc2cc(OCc3cncc(C#N)c3)c(CN3CCCC[C@H]3C(=O)O)cc2Cl)cccc1-c1cccc(OCCCNC23CC4CC(CC(C4)C2)C3)c1C` [Example 2227, (S)-1-(4-((3′-(3-((3s,5s,7s)-adamantan-1-ylamino)propoxy)-2,2′-dimethyl-[1,1′-biphenyl]-3-yl)methoxy)-5-chloro-2-((5-cyanopyridin-3-yl)methoxy)benzyl)piperidine-2-carboxylic Acid], the IC50 was in the range of 0.21 to 10 nM. For `Cc1c(COc2cc(OCc3cncc(C#N)c3)c(CN3CCCC[C@H]3C(=O)O)cc2Cl)cccc1-c1cccc(OCCCN(C)Cc2ccccn2)c1C` [Example 2228, (2S)-1-(5-chloro-2-((5-cyanopyridin-3-yl)methoxy)-4-((2,2′-dimethyl-3′-(3-(methyl(pyridin-2-ylmethyl)amino)propoxy)biphenyl-3-yl)methoxy)benzyl)piperidine-2-carboxylic Acid], the IC50 lay in the range of 10 to 100 nM. On to `COC(=O)[C@H]1CC[C@H](NCCCOc2cccc(-c3cccc(COc4cc(OCc5cncc(C#N)c5)c(CN5CCCC[C@H]5C(=O)O)cc4Cl)c3C)c2C)CC1` [Example 2229, (2S)-1-(5-chloro-2-((5-cyanopyridin-3-yl)methoxy)-4-((3′-(3-((1r,4r)-4-(methoxycarbonyl)cyclohexylamino)propoxy)-2,2′-dimethylbiphenyl-3-yl)methoxy)benzyl)piperidine-2-carboxylic Acid], for which the IC50 lay within 0.21 to 10 nM. The same measure, in the same setting: under `Cc1c(COc2cc(OCc3cncc(C#N)c3)c(CN3CCCC[C@H]3C(=O)O)cc2Cl)cccc1-c1cccc(OCCCN[C@@H](CO)c2ccccc2)c1C` [Example 2230, (2S)-1-(5-chloro-2-((5-cyanopyridin-3-yl)methoxy)-4-((3′-(3-((R)-2-hydroxy-1-phenylethylamino)propoxy)-2,2′-dimethylbiphenyl-3-yl)methoxy)benzyl)piperidine-2-carboxylic Acid] stands 0.21 to 10 nM; under `Cc1c(COc2cc(OCc3cncc(C#N)c3)c(CN3CCCC[C@H]3C(=O)O)cc2Cl)cccc1-c1cccc(OCCCN2CC(N(C)C)C2)c1C` [Example 2232, (2S)-1-(5-chloro-2-((5-cyanopyridin-3-yl)methoxy)-4-((3′-(3-(3-(dimethylamino)azetidin-1-yl)propoxy)-2,2′-dimethylbiphenyl-3-yl)methoxy)benzyl)piperidine-2-carboxylic Acid], 0.21 to 10 nM; under `Cc1c(COc2cc(OCc3cncc(C#N)c3)c(CN3CCCC[C@H]3C(=O)O)cc2Cl)cccc1-c1cccc(OCCCN(C)CCO)c1C` [Example 2233, (2S)-1-(5-chloro-2-((5-cyanopyridin-3-yl)methoxy)-4-((3′-(3-((2-hydroxyethyl)(methyl)amino)propoxy)-2,2′-dimethylbiphenyl-3-yl)methoxy)benzyl)piperidine-2-carboxylic Acid], 0.21 to 10 nM.
